In paper PMC8689140 (Frontiers in Pharmacology, 2021):

What was measured:
[1] = Metabolite identification in liver microsomes from humans, dogs and rats (stated across species); assay type: in vitro ADME, human, dog, rat; conditions: liver microsomes from humans, rats, and dogs
Protocol: Human, rat and dog liver microsomes were carefully thawed on ice prior to the experiment and diluted to 1 mg/ml in100 mM sodium phosphate buffer (pH 7.4) containing 10 mM magnesium chloride. […] After 3 min of preincubation at 37°C, the reactions were initiated by adding 20 µL of NADPH (20 mM) and then incubated at 37°C in a shaking water bath for 60 min. All samples were prepared in duplicates. The reactions were terminated by adding 600 µl of ice-cold acetonitrile and stored at −20°C until analysis. Control samples without NADPH and 0-time point samples were included. As a positive control, testosterone (10 µM) which was metabolized to produce the hydroxylation metabolite was used as a substrate to confirm the activity of the incubation system. Next, the samples were centrifuged at 13,000 rpm for 10 min, the supernatant was separated and evaporated to dryness under a nitrogen stream. The residue was resuspended in 100 μl of acetonitrile, after centrifugation, the supernatants were analyzed by UPLC–UV-HRMS.
The analysis was performed on Acquity UPLC system coupled with a diode array detector (Waters Corporation, United States) and Q Exactive™ Orbitrap HRMS (Thermo Electron Corporation, United States). […]
HRMS were operated at positive ion mode using a heating electrospray ionization source (HESI). […] The metabolites were detected by full MS/dd-MS^2 analysis from m/z 100 to m/z 1,000. […]

[2] = system: locomotor activity of rats; experiment: Dose-dependent effects on locomotor activity in rats; assay type: in vivo, rat; conditions: for reduction rate (RR) of locomotion: 0.5-[…] after dosing
Protocol: Before administration, animals were transported to the test room and allowed to acclimate for at least 1 h. Immediately after drug administration, rats were placed into activity chambers to assess their basal locomotor activity using the TopScan monitoring system. The total travel distance was recorded from 0.5 to 1.5 h after administration in intervals of 10 min.

[3] = PK in dogs after single oral or intravenous dose; assay type: in vivo, dog
Protocol: (§1) Male beagle dogs were randomly divided into four groups. […] The dogs were fasted for 12 h before treatment and 4 h after treatment, but they were granted free access to water. Blood was collected from the vein before administration and 0.083 (only for injection groups), 0.25, 0.5, 1, 2, 3, 4, 6, 8, 12 and 24 h, and placed it in heparinized tubes, and centrifuged it at 8,000 rpm for 10 min at 4°C to separate the plasma, which we stored at −20 °C until analysis. The plasma samples were pretreated by protein precipitation with acetonitrile and quantitated by the validated LC-MS/MS (Shimadzu Exion-Triple Quad 4500) method.
The system consisted of an Exion UHPLC system (Shimadzu, Japan) and a Triple Quad 4500 mass spectrometer (AB Sciex, United States) with an electrospray ionization source. Multiple reaction monitoring in the positive ionization mode was applied to measure analytes. Chromatographic separation was performed on a Acquity BEH C18 column (50 × 2.1 mm i. d., 1.7 μm, Waters, United States). The mobile phase was composed of 0.1% FA in water (A) and 0.1% FA in acetonitrile (B), and the flow rate was 0.4 ml/min. The elution conditions were the following linear gradient: 0–0.4 min: 90% A, 0.4–0.6 min: 60% A, 0.6–1.2 min: 10% A, 1.2–2.2 min: 10% A, 2.2–2.3 min: 90% A, 2.3–3.0 min: 90% A. The optimized parameters were as follows: the spray voltage 5.5 kV, source temperature 550 °C, pressure of source gas 1 and gas 2: 55psi, pressure of curtain gas: 30psi, and the DP, EP and CE voltage was 30,6 and 40 eV, respectively.

[4] = target: T1, rat VMAT2 (Rattus norvegicus, UniProt Q01827); experiment: [3H]DA uptake assay in rat striatal synaptosomes; assay type: biochemical
T1 construct: in vitro [^3H]DA uptake assay in rat striatal synaptosomes; from tissue; host or cells: rat striatal synaptosomes / vesicular suspension
Protocol: [^3H]DA (dihydroxyphenylethyethylamine, 3,4-[ring-2,5,6-^3H]; specific activity, 28.0 Ci/mmol) was purchased from Perkin Elmer. […] After drying, the filter plate was sealed with unifilter-96 back sealing tape and added 50 μl of microscint-20 (Perkin Elmer), then sealed the top of the filter plate with TopSeal-A. The radioactivity was measured by a TopCount scintillation counter. GraphPad Prism 5.0 was used to analyze data.

[5] = Metabolite identification in dog plasma after oral dose; assay type: in vivo; conditions: dog plasma after oral administration
Protocol: as §1
Then, four volumes of acetonitrile (containing 0.1% formic acid) were added into the pooled plasma samples to precipitate the proteins. After vortex-mixing and centrifugation, the supernatants were dried under a nitrogen stream. Then, the residues were resuspended in 100 μl of acetonitrile/water (1:1, v/v) with 0.1% formic acid. After centrifugation, the supernatants were analyzed by UPLC–UV-HRMS for metabolite identification.
The analysis was performed on Acquity UPLC system coupled with a diode array detector (Waters Corporation, United States) and Q Exactive™ Orbitrap HRMS (Thermo Electron Corporation, United States). […] The mobile phase was composed water containing 0.1% formic acid (A) and acetonitrile containing 0.1% formic acid (B). The flow rate was 0.40 ml/min. The elution conditions were the following linear gradient for metabolite identify in HLMs: 0–1 min: 95% A, 1–2 min: 80% A, 2–5 min: 80% A, 5–8 min: 70% A, 8–12 min: 30% A, 12–15 min: 5% A, 15–16 min: 95% A, and 16–18 min: 95% A. The elution conditions were the following for metabolite identify in dog plasma: 0–1 min: 95% A, 1–30 min: 70% A, 30–32 min: 30% A, 32–33 min: 5% A, 33–35 min: 95% A, and 35–40 min: 95% A.
HRMS were operated at positive ion mode using a heating electrospray ionization source (HESI). The optimized operating parameters were set as follows: sheath gas (nitrogen) flow rate of 35 psi, aux gas (nitrogen) flow rate of 10 psi, HESI and capillary temperature of 350°C, and spray voltage of 3.5 kV. The metabolites were detected by full MS/dd-MS^2 analysis from m/z 100 to m/z 1,000. The resolution of the first-class scan and second-class scan was 70 000 and 17 500, respectively. The collision energy for collision induced dissociation (NCE) was set to 20, 40 and 60 eV. The loop count was set to five and the dynamic exclusion duration to 10 s. […] Thermo Compound Discover software was used to identify expected and unknown metabolites, and we finally proposed (+)-13e metabolic pathways based on the deduced metabolites and relevant drug biotransformation knowledge.

[6] = system: dopamine receptors, serotonin receptors, adrenergic receptors, dopamine transporter, norepinephrine transporter, five serotonin transporter; experiment: Multi-target activity screen of SpectrumScreen Panel (Eurofins screen); conditions: serotonin transporters, and so on

T1 sequence (Q01827 whole entry): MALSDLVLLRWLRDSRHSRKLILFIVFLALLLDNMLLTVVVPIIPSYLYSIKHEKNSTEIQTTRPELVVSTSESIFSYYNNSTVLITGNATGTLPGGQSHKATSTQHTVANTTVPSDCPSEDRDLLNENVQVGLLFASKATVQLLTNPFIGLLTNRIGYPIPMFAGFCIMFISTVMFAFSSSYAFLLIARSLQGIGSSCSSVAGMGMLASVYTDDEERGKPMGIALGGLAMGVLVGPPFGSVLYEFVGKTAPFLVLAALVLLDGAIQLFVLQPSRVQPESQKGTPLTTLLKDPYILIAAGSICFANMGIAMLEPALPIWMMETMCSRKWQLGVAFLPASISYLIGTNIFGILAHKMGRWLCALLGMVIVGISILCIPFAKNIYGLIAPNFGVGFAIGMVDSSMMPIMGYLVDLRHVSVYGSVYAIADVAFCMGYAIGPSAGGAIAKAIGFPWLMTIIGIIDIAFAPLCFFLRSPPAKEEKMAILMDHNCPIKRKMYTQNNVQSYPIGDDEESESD

COc1cc2c(cc1OCC(F)(F)F)CCN1CC(CC(C)C)C(O)CC21 (single isomer, unassigned; (+)) [(+)-13e, (+)-9-(2,2,2-trifluoroethoxy)-α-dihydrotetrabenazine]
O-detrifluoroethylation at the nine position [1]: did not occur
starting effective dose ([2]; SD rats, first dose with significant inhibition of locomotor activity vs NS (p < 0.05)): 0.32 µmol/kg
reduction rate (RR) of locomotion ([2]; SD rats, single oral gavage 0.32 μmol/kg): 58.6%
reduction rate (RR) of locomotion ([2]; SD rats, single oral gavage 1.3 μmol/kg): 95.5%
PD effect stronger than that of VBZ in vivo ([2]; rat locomotor activity): approximately 4 fold
V, V/F ([3]; dog, single intravenous dose 0.6 μmol/kg): 5.4 ± 1.1 L/kg
clearance ([3]; dog, single intravenous dose 0.6 μmol/kg, read-out: Cl, Cl/F (converted)): 23.3 mL/min/kg
V, V/F ([3]; dog, single oral dose 3 μmol/kg): 18.8 ± 9.2 L/kg
Cmax smaller than that of VBZ ([3]; dogs, oral administration at an equivalent dose): 2.9 fold
Cmax larger than that of HTBZ ([3]; dogs, oral administration at an equivalent dose (HTBZ from VBZ)): 7.7 fold
bioavailability ([3]; male, beagle, dog, plasma, dogs, oral 3 μmol/kg vs intravenous 0.6 μmol/kg, read-out: absolute oral bioavailability): 75.9%
CL/F ([3]; male, beagle, plasma, 3 umol/kg, dog, single oral dose 3 μmol/kg): 31.7 mL/min/kg
IC90 ([4]; [3H]DA uptake, rat striatal synaptosomes): 0.0341 µM
inhibitory effect on [3H]DA uptake stronger than that of HTBZ ([4]; ratio of IC50 vs HTBZ): approximately 5 fold
O-detrifluoroethylation at the nine position [5]: did not occur
effects in multi-target activity screen [6]: no effects
